Reference: US12138398B2, “Methods and devices for providing a stimulus to a subject to induce gamma oscillations” (Massachusetts Institute of Technology, priority 2015, dated 2024)
“Also recorded” adds a separate entry of the source.

Tests used:
AD patients = details: AD subjects; cited from earlier work
CK-p25 Tg mice [1] = assay: Brain weight and lateral ventricle expansion in CK-p25 Tg mice; type: in vivo, mouse
Method: A study was conducted to examine the effect of gamma exposure and/or administration in accordance with some embodiments on DNA damage and neuronal loss in the visual cortex of a subject. For the study, an inducible mouse model of p25 accumulation (i.e., a creatine kinase carboxyl-terminal fragment p25 Tg mouse (CK-p25 Tg mouse)) was used. […] A study was conducted to compare groups of mice under different treatment regimens. FIG. 84 is a diagram of the groups including CK-control mice 8400, untreated CK-p25 Tg mice 8402, CK-p25 Tg mice treated with memantine (10 mg/kg daily) 8404, CK-p25 Tg mice exposed to the 40-Hz light flicker (one hour daily for 6 weeks) in accordance with some embodiments 8406, and CK-p25 Tg mice treated with memantine and also exposed to the 40-Hz light flicker 8408. Memantine is a medication used with limited success to treat severe AD by blocking NMDA receptors, thereby acting on the glutamatergic system. […] For example, gamma exposure reduced and/or prevented CKp-25-induced loss of brain weight. FIG. 85 is bar graph comparing brain weight change in CK-control mice, untreated CK-p25 Tg mice, CK-p25 Tg mice treated with memantine, CK-p25 Tg mice exposed to the 40-Hz light flicker in accordance with some embodiments, and CK-p25 Tg mice treated with both memantine and the 40-Hz light flicker. Brain weight loss was pronounced in untreated CK-p25 Tg mice, CK-p25 Tg mice treated with memantine, and CK-p25 Tg mice treated with both memantine and the 40-Hz light flicker. However, CK-p25 Tg mice exposed to the 40-Hz light flicker in accordance with some embodiments retained more brain weight. […] For example, gamma exposure reduced and/or prevented CKp-25-induced abnormal lateral ventricle expansion in subjects. FIG. 86 is bar graph comparing fold change of lateral ventricle expansion in CK-control mice, untreated CK-p25 Tg mice, CK-p25 Tg mice treated with memantine, CK-p25 Tg mice exposed to the 40-Hz light flicker in accordance with some embodiments, and CK-p25 Tg mice treated with both memantine and the 40-Hz light flicker with expansion in the CK-control mice as a baseline. Lateral ventricle expansion was pronounced in untreated CK-p25 Tg mice, CK-p25 Tg mice treated with memantine, and CK-p25 Tg mice treated with both memantine and the 40-Hz light flicker. Lateral ventricles in CK-p25 Tg mice exposed to the 40-Hz light flicker in accordance with some embodiments expanded much less than the lateral ventricles in the other CK-p25 Tg mice.

CK-p25 Tg mice [2] = assay: NeuN-positive cells (neuronal loss) in CK-p25 Tg mice; type: in vivo, mouse
Method: A study was conducted to examine the effect of gamma exposure and/or administration in accordance with some embodiments on DNA damage and neuronal loss in the visual cortex of a subject. For the study, an inducible mouse model of p25 accumulation (i.e., a creatine kinase carboxyl-terminal fragment p25 Tg mouse (CK-p25 Tg mouse)) was used. […] A study was conducted to compare groups of mice under different treatment regimens. FIG. 84 is a diagram of the groups including CK-control mice 8400, untreated CK-p25 Tg mice 8402, CK-p25 Tg mice treated with memantine (10 mg/kg daily) 8404, CK-p25 Tg mice exposed to the 40-Hz light flicker (one hour daily for 6 weeks) in accordance with some embodiments 8406, and CK-p25 Tg mice treated with memantine and also exposed to the 40-Hz light flicker 8408. Memantine is a medication used with limited success to treat severe AD by blocking NMDA receptors, thereby acting on the glutamatergic system. FIG. 98 is a bar graph comparing the amount of NeuN-positive cells as a percentage of the NeuN-positive cells in CK-control mice for the CK-control mice, untreated CK-p25 Tg mice, CK-p25 Tg mice treated with memantine, CK-p25 Tg mice exposed to the 40-Hz light flicker in accordance with some embodiments, and CK-p25 Tg mice treated with both memantine and the 40-Hz light flicker. Thus, the percentage of the CK-control mice NeuN-positive cells are 100% in the CK-control mice, but only about 80% in untreated CK-p25 Tg mice, corroborating neuronal loss in the CK-p25 Tg mouse model. […] Thus, FIG. 98 illustrates how 40-Hz visual flicker treatment in accordance with some embodiments can preserve neurons in the visual cortex.

CK-p25 Tg mice [3] = assay: Cortical (Hoechst) and neuronal (NeuN) layer thickness in CK-p25 Tg mice; type: in vivo, mouse; details: visual cortex; for thickness of V1-neuronal layer: NeuN
Method: A study was conducted to examine the effect of gamma exposure and/or administration in accordance with some embodiments on DNA damage and neuronal loss in the visual cortex of a subject. For the study, an inducible mouse model of p25 accumulation (i.e., a creatine kinase carboxyl-terminal fragment p25 Tg mouse (CK-p25 Tg mouse)) was used.
A study was conducted to compare groups of mice under different treatment regimens. FIG. 84 is a diagram of the groups including CK-control mice 8400, untreated CK-p25 Tg mice 8402, CK-p25 Tg mice treated with memantine (10 mg/kg daily) 8404, CK-p25 Tg mice exposed to the 40-Hz light flicker (one hour daily for 6 weeks) in accordance with some embodiments 8406, and CK-p25 Tg mice treated with memantine and also exposed to the 40-Hz light flicker 8408. Memantine is a medication used with limited success to treat severe AD by blocking NMDA receptors, thereby acting on the glutamatergic system.
Cortical layer loss was gauged using nuclear staining with Hoechst labels (i.e., blue fluorescent dyes used to stain DNA). Neuronal layer loss was gauged using NeuN, a neuronal nuclear antigen that is commonly used as a biomarker for neurons. FIG. 89 is a bar graph depicting average thickness of the V1-cortical layer in each group, and FIG. 90 is a bar graph depicting average thickness of the V1-NeuN-positive cell layer in each group.

[4] = memantine + 40-Hz light flicker
[5] = memantine alone, compared to untreated CK-p25 Tg

CC12CC3CC(C)(C1)CC(N)(C3)C2 [memantine]
clinical outcome on cognition (AD patients): only mild cognitive benefits | Brain weight loss (CK-p25 Tg mice [1]; memantine 10 mg/kg daily): pronounced | Lateral ventricle expansion (CK-p25 Tg mice [1]; memantine 10 mg/kg daily): pronounced; also recorded: largest | Brain weight loss (CK-p25 Tg mice [1]; [4]): pronounced | Lateral ventricle expansion (CK-p25 Tg mice [1]; [4]): pronounced; also recorded: largest | neuronal loss (NeuN-positive cells) in hippocampus (CK-p25 Tg mice [2]; [4]): prevented some neuronal loss | neuronal loss (NeuN-positive cells) in insular cortex (CK-p25 Tg mice [2]; [4]): prevented the least neuronal loss | neuronal loss (NeuN-positive cells) in somatosensory cortex (CK-p25 Tg mice [2]; [4]): prevented most neuronal loss | neuronal loss (NeuN-positive cells) in visual cortex (CK-p25 Tg mice [2]; [4]): failed to prevent as much neuronal loss | neuronal loss (NeuN-positive cells) in hippocampus (CK-p25 Tg mice [2]; [5]): prevented some neuronal loss | neuronal loss (NeuN-positive cells) in insular cortex (CK-p25 Tg mice [2]; [5]): prevented some neuronal loss | neuronal loss (NeuN-positive cells) in somatosensory cortex (CK-p25 Tg mice [2]; [5]): failed to prevent any neuronal loss | neuronal loss (NeuN-positive cells) in visual cortex (CK-p25 Tg mice [2]; [5]): prevented some neuronal loss | thickness of V1-neuronal layer (CK-p25 Tg mice [3]; [4]): 691 ± 20 µm | thickness of V1-neuronal layer (CK-p25 Tg mice [3]; memantine alone): 660 ± 7 µm | thickness of V1-cortical layer (CK-p25 Tg mice [3]; [4]): 821 ± 22 µm | thickness of V1-cortical layer (CK-p25 Tg mice [3]; memantine alone): 788 ± 9 µm
